“And” between values parts separate entries of the source, which are not always exact repeats. Identical values can stand only once. Inconclusive results and toxic doses are left out.
System: P388 leukemia ip, CD2F1 mice, survival T/C
Assay: NCI In Vivo Anticancer Drug Screen. Data for tumor model P388 Leukemia (intraperitoneal) in CD2F1 (CDF1) mice
Conditions: endpoint: median survival time, higher = longer survival
Procedure, shortened: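 Mice carrying the transplanted tumor received test compound or vehicle. Survival was recorded in each group, and the value is the treated-group measurement divided by that of the vehicle-treated control group.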

[1] = dose: 50.0 mg/kg/injection, schedule: Q01DX005 (ip), vehicle: Klucel (hydroxypropylcellulose) (HPC)
[2] = dose: 50.0 mg/kg/injection, schedule: Q01DX009 (ip), vehicle: saline with Tween-80
[3] = dose: 100.0 mg/kg/injection, schedule: Q01DX009 (ip), vehicle: Klucel (hydroxypropylcellulose) (HPC)
[4] = dose: 100.0 mg/kg/injection, schedule: Q01DX009 (ip), vehicle: saline with Tween-80
[5] = dose: 200.0 mg/kg/injection, schedule: Q01DX009 (ip), vehicle: Klucel (hydroxypropylcellulose) (HPC)
[6] = dose: 200.0 mg/kg/injection, schedule: Q01DX009 (ip), vehicle: saline with Tween-80

C=CCNCCC1CCCCCC1
T/C [1]: 102 % of control

CCCN(CCC)c1cc(=O)nc2ccccn12
T/C (dose: 60.0 mg/kg/injection, schedule: Q01DX005 (ip), vehicle: saline): 100 % of control | T/C (dose: 120.0 mg/kg/injection, schedule: Q01DX005 (ip), vehicle: saline): 106 % of control | T/C (dose: 240.0 mg/kg/injection, schedule: Q01DX005 (ip), vehicle: saline): 106 % of control

CN(C)/C=C/C(=O)c1ccccc1
T/C (dose: 60.0 mg/kg/injection, schedule: Q01DX005 (ip), vehicle: saline with Tween-80): 107 % of control | T/C (dose: 120.0 mg/kg/injection, schedule: Q01DX005 (ip), vehicle: saline with Tween-80): 101 % of control | T/C (dose: 240.0 mg/kg/injection, schedule: Q01DX005 (ip), vehicle: saline with Tween-80): 102 % of control

COc1cc2c(cc1OC)C(=O)c1nccc3ccc(OC)c(c13)O2
T/C (dose: 6.75 mg/kg/injection, schedule: Q01DX005 (ip), vehicle: Klucel (hydroxypropylcellulose) (HPC)): 100 % of control | T/C (dose: 13.5 mg/kg/injection, schedule: Q01DX005 (ip), vehicle: Klucel (hydroxypropylcellulose) (HPC)): 92 % of control | T/C (dose: 27.0 mg/kg/injection, schedule: Q01DX005 (ip), vehicle: Klucel (hydroxypropylcellulose) (HPC)): 101 % of control | T/C (dose: 54.0 mg/kg/injection, schedule: Q01DX005 (ip), vehicle: Klucel (hydroxypropylcellulose) (HPC)): 92 % of control

CCC[CH2][Sn]([Cl])([Cl])[CH2]CCC
T/C (dose: 0.19 mg/kg/injection, schedule: Q01DX009 (ip), vehicle: saline with Tween-80): 100 % of control | T/C (dose: 0.38 mg/kg/injection, schedule: Q01DX009 (ip), vehicle: saline with Tween-80): 113 % of control | T/C (dose: 0.75 mg/kg/injection, schedule: Q01DX009 (ip), vehicle: saline with Tween-80): 114 % of control and 120 % of control | T/C (dose: 1.5 mg/kg/injection, schedule: Q01DX009 (ip), vehicle: saline with Tween-80): 112 % of control and 114 % of control | T/C (dose: 3.0 mg/kg/injection, schedule: Q01DX009 (ip), vehicle: saline with Tween-80): 168 % of control | T/C (dose: 6.0 mg/kg/injection, schedule: Q01DX009 (ip), vehicle: saline with Tween-80): 91 % of control | T/C (dose: 100.0 mg/kg/injection, schedule: Q04DX003 (ip), vehicle: saline): 109 % of control

CN(C)c1nc(N)nc(Nc2ccc(Br)cc2)c1N=O
T/C (dose: 25.0 mg/kg/injection, schedule: Q01DX009 (ip), vehicle: saline with Tween-80): 100 % of control | T/C [2]: 91 % of control | T/C [3]: 113 % of control | T/C [4]: 100 % of control | T/C (dose: 100.0 mg/kg/injection, schedule: Q04DX003 (ip), vehicle: saline with Tween-80): 108 % of control | T/C [5]: 109 % of control | T/C (dose: 200.0 mg/kg/injection, schedule: Q04DX003 (ip), vehicle: saline with Tween-80): 95 % of control | T/C (dose: 400.0 mg/kg/injection, schedule: Q01DX009 (ip), vehicle: Klucel (hydroxypropylcellulose) (HPC)): 95 % of control | T/C (dose: 400.0 mg/kg/injection, schedule: Q04DX003 (ip), vehicle: saline with Tween-80): 95 % of control

CCOC(=O)C(C#N)C=Nc1cccc(N(C)C)c1 (stereo unspecified)
T/C (dose: 50.0 mg/kg/injection, schedule: Q01DX009 (ip), vehicle: Klucel (hydroxypropylcellulose) (HPC)): 108 % of control | T/C [3]: 117 % of control | T/C [5]: 104 % of control

O=c1[nH][nH]c2c(N=Cc3ccccc3O)ccc(F)c12
T/C (dose: 50.0 mg/kg/injection, schedule: Q01DX005 (ip), vehicle: Klucel + Tween-80): 108 % of control | T/C (dose: 100.0 mg/kg/injection, schedule: Q01DX005 (ip), vehicle: Klucel + Tween-80): 102 % of control | T/C (dose: 200.0 mg/kg/injection, schedule: Q01DX005 (ip), vehicle: Klucel + Tween-80): 108 % of control

O=Cc1ccc(N=Nc2c(S(=O)(=O)O)cc3cc(S(=O)(=O)O)cc(O)c3c2O)cc1
T/C [2]: 90 % of control | T/C [4]: 90 % of control | T/C [6]: 100 % of control

CC(=O)c1ccc(Cl)c(-n2cccc2)c1
T/C [1]: 95 % of control | T/C (dose: 100.0 mg/kg/injection, schedule: Q01DX005 (ip), vehicle: Klucel (hydroxypropylcellulose) (HPC)): 101 % of control

O=C(O)c1c(-c2ccccc2)cnc2ccccc12
T/C [2]: 95 % of control | T/C [4]: 89 % of control | T/C [6]: 97 % of control
